Measurements published in ChEMBL document CHEMBL3885861, “Open TG-GATES”.

Organism: Rattus norvegicus
Assay: Open TG-GATES - Regimen: Daily Repeat
Type: toxicity, organism-based, Sprague-Dawley
Set-up: regimen Daily Repeat, gender Male, age 6 weeks
Conditions: in vivo, po, route gavage; for APTT / Bas / Eos / Fbg / Hb / Ht / Lym / MCH / MCHC / MCV / Mono / Neu / PT / Plat / RBC / Ret / WBC: tissue Blood; for KIDNEY_L / KIDNEY_R / KIDNEY_TOTAL: tissue Kidney; for LIVER: tissue Liver; for A/G / ALP / ALT / AST / BUN / CRE / Ca / Cl / DBIL / GLC / IP / K / LDH / Na / PL / RALB / TBIL / TC / TG / TP / gamma-GTP: tissue Plasma
[1] = 250 mg/kg, 72 h, dose level Middle, time 3 day
[2] = 250 mg/kg, […], dose level Middle, time 7 day
[3] = 250 mg/kg, […], dose level Middle, time 14 day
[4] = 250 mg/kg, […], dose level Middle, time 28 day
[5] = 750 mg/kg, 72 h, dose level High, time 3 day
[6] = 750 mg/kg, […], dose level High, time 7 day
[7] = 750 mg/kg, […], dose level High, time 14 day
[8] = 750 mg/kg, […], dose level High, time 28 day

CN(C/C=C/C#CC(C)(C)C)Cc1cccc2ccccc12 [TERBINAFINE]
TERMINAL_BW [1]: 237.2 g
APTT [1]: 17.7 s
Bas [1]: 1%
Eos [1]: 1%
Fbg [1]: 223.6 mg/dL
Hb [1]: 13.6 g/dL
Ht [1]: 40.4%
Lym [1]: 77.2%
MCH [1]: 21.7 pg
MCHC [1]: 33.7%
MCV [1]: 64.4 fL
Mono [1]: 3.4%
Neu [1]: 18%
PT [1]: 11.6 s
Plat [1]: 122 x10_4/uL
RBC [1]: 628.6 x10_4/ul
Ret [1]: 5.9%
WBC [1]: 115.2 x10_2/uL
KIDNEY_L [1]: 1.1 g
KIDNEY_R [1]: 1.1 g
KIDNEY_TOTAL [1]: 2.2 g
LIVER [1]: 12.2 g
A/G [1]: 1.7
ALP [1]: 954.4 IU/L
ALT [1]: 39.8 IU/L
AST [1]: 71.4 IU/L
BUN [1]: 14.8 mg/dL
CRE [1]: 0.4 mg/dL
Ca [1]: 10.5 mg/dL
Cl [1]: 103 meq/L
DBIL [1]: 0.078 mg/dL
GLC [1]: 189 mg/dL
IP [1]: 7.5 mg/dL
K [1]: 4 meq/L
LDH [1]: 197 IU/L
Na [1]: 141.4 meq/L
PL [1]: 141.2 mg/dL
RALB [1]: 3.5 g/dL
TBIL [1]: 0.1 mg/dL
TC [1]: 78.6 mg/dL
TG [1]: 65.6 mg/dL
TP [1]: 5.5 g/dL
gamma-GTP [1]: 1.4 IU/L
TERMINAL_BW [2]: 268.6 g
TERMINAL_BW [3]: 323.9 g
TERMINAL_BW [4]: 411.4 g
APTT [2]: 21.6 s
Bas [2]: 1%
Eos [2]: 0.6%
Fbg [2]: 206 mg/dL
Hb [2]: 13.7 g/dL
Ht [2]: 39.7%
Lym [2]: 81.6%
MCH [2]: 20.8 pg
MCHC [2]: 34.6%
MCV [2]: 60.2 fL
Mono [2]: 2.4%
Neu [2]: 13.8%
PT [2]: 12.2 s
Plat [2]: 134.5 x10_4/uL
RBC [2]: 660 x10_4/ul
Ret [2]: 4.1%
WBC [2]: 128 x10_2/uL
APTT [3]: 19.5 s
Bas [3]: 1%
Eos [3]: 1%
Fbg [3]: 219.6 mg/dL
Hb [3]: 14.1 g/dL
Ht [3]: 41.7%
Lym [3]: 82.4%
MCH [3]: 19.9 pg
MCHC [3]: 33.8%
MCV [3]: 58.8 fL
Mono [3]: 2.8%
Neu [3]: 13%
PT [3]: 11.6 s
Plat [3]: 124.9 x10_4/uL
RBC [3]: 710 x10_4/ul
Ret [3]: 4.3%
WBC [3]: 135.6 x10_2/uL
APTT [4]: 22 s
Bas [4]: 1%
Eos [4]: 1.2%
Fbg [4]: 223.8 mg/dL
Hb [4]: 14.5 g/dL
Ht [4]: 41.4%
Lym [4]: 81%
MCH [4]: 20 pg
MCHC [4]: 35%
MCV [4]: 57.1 fL
Mono [4]: 2.2%
Neu [4]: 14.8%
PT [4]: 12.2 s
Plat [4]: 121.1 x10_4/uL
RBC [4]: 725.4 x10_4/ul
Ret [4]: 3.1%
WBC [4]: 136.2 x10_2/uL
KIDNEY_L [2]: 1.3 g
KIDNEY_R [2]: 1.2 g
KIDNEY_TOTAL [2]: 2.5 g
KIDNEY_L [3]: 1.4 g
KIDNEY_R [3]: 1.4 g
KIDNEY_TOTAL [3]: 2.8 g
KIDNEY_L [4]: 1.7 g
KIDNEY_R [4]: 1.7 g
KIDNEY_TOTAL [4]: 3.4 g
LIVER [2]: 13.7 g
LIVER [3]: 16.3 g
LIVER [4]: 20.2 g
A/G [2]: 1.6
ALP [2]: 738.6 IU/L
ALT [2]: 37.6 IU/L
AST [2]: 70.4 IU/L
BUN [2]: 13.6 mg/dL
CRE [2]: 0.4 mg/dL
Ca [2]: 10.4 mg/dL
Cl [2]: 103.6 meq/L
DBIL [2]: 0.07 mg/dL
GLC [2]: 192 mg/dL
IP [2]: 7.4 mg/dL
K [2]: 4 meq/L
LDH [2]: 188.8 IU/L
Na [2]: 142.6 meq/L
PL [2]: 123.6 mg/dL
RALB [2]: 3.6 g/dL
TBIL [2]: 0.1 mg/dL
TC [2]: 65.2 mg/dL
TG [2]: 53.8 mg/dL
TP [2]: 5.8 g/dL
gamma-GTP [2]: 1 IU/L
A/G [3]: 1.5
ALP [3]: 690 IU/L
ALT [3]: 34 IU/L
AST [3]: 62.8 IU/L
BUN [3]: 14.2 mg/dL
CRE [3]: 0.4 mg/dL
Ca [3]: 10.6 mg/dL
Cl [3]: 103.6 meq/L
DBIL [3]: 0.088 mg/dL
GLC [3]: 196.4 mg/dL
IP [3]: 8 mg/dL
K [3]: 3.8 meq/L
LDH [3]: 155.2 IU/L
Na [3]: 142.2 meq/L
PL [3]: 128 mg/dL
RALB [3]: 3.6 g/dL
TBIL [3]: 0.1 mg/dL
TC [3]: 68 mg/dL
TG [3]: 79.8 mg/dL
TP [3]: 5.9 g/dL
gamma-GTP [3]: 1 IU/L
A/G [4]: 1.3
ALP [4]: 565.8 IU/L
ALT [4]: 34 IU/L
AST [4]: 61.2 IU/L
BUN [4]: 18.2 mg/dL
CRE [4]: 0.5 mg/dL
Ca [4]: 10.4 mg/dL
Cl [4]: 103.6 meq/L
DBIL [4]: 0.088 mg/dL
GLC [4]: 229.6 mg/dL
IP [4]: 7.1 mg/dL
K [4]: 4 meq/L
LDH [4]: 167.4 IU/L
Na [4]: 141.4 meq/L
PL [4]: 134 mg/dL
RALB [4]: 3.5 g/dL
TBIL [4]: 0.2 mg/dL
TC [4]: 72 mg/dL
TG [4]: 69.4 mg/dL
TP [4]: 6.1 g/dL
gamma-GTP [4]: 1.4 IU/L
TERMINAL_BW [5]: 217.7 g
APTT [5]: 22.6 s
Bas [5]: 0.8%
Eos [5]: 0.8%
Fbg [5]: 200.6 mg/dL
Hb [5]: 14.1 g/dL
Ht [5]: 41.1%
Lym [5]: 82.8%
MCH [5]: 20.9 pg
MCHC [5]: 34.2%
MCV [5]: 61 fL
Mono [5]: 2.6%
Neu [5]: 13%
PT [5]: 12.5 s
Plat [5]: 137.3 x10_4/uL
RBC [5]: 673.8 x10_4/ul
Ret [5]: 4.5%
WBC [5]: 64.8 x10_2/uL
KIDNEY_L [5]: 1 g
KIDNEY_R [5]: 1.1 g
KIDNEY_TOTAL [5]: 2.1 g
LIVER [5]: 11.4 g
A/G [5]: 2
ALP [5]: 748.6 IU/L
ALT [5]: 34.6 IU/L
AST [5]: 62.6 IU/L
BUN [5]: 10.6 mg/dL
CRE [5]: 0.4 mg/dL
Ca [5]: 9.5 mg/dL
Cl [5]: 102.8 meq/L
DBIL [5]: 0.09 mg/dL
GLC [5]: 172 mg/dL
IP [5]: 9.2 mg/dL
K [5]: 3.8 meq/L
LDH [5]: 207.4 IU/L
Na [5]: 140.8 meq/L
PL [5]: 123.2 mg/dL
RALB [5]: 3.6 g/dL
TBIL [5]: 0.2 mg/dL
TC [5]: 81 mg/dL
TG [5]: 19.2 mg/dL
TP [5]: 5.4 g/dL
gamma-GTP [5]: 1.8 IU/L
TERMINAL_BW [6]: 187.9 g
TERMINAL_BW [7]: 255.9 g
TERMINAL_BW [8]: 360.5 g
APTT [6]: 45.7 s
Bas [6]: 1%
Eos [6]: 0.6%
Fbg [6]: 187.6 mg/dL
Hb [6]: 15.9 g/dL
Ht [6]: 45.2%
Lym [6]: 77.6%
MCH [6]: 21.1 pg
MCHC [6]: 35.2%
MCV [6]: 59.8 fL
Mono [6]: 4.6%
Neu [6]: 15.8%
PT [6]: 30.8 s
Plat [6]: 146 x10_4/uL
RBC [6]: 755 x10_4/ul
Ret [6]: 0.3%
WBC [6]: 82.6 x10_2/uL
APTT [7]: 21.4 s
Bas [7]: 0.6%
Eos [7]: 0.6%
Fbg [7]: 198.4 mg/dL
Hb [7]: 13.8 g/dL
Ht [7]: 40.2%
Lym [7]: 70.4%
MCH [7]: 20.7 pg
MCHC [7]: 34.3%
MCV [7]: 60.3 fL
Mono [7]: 3.2%
Neu [7]: 24.4%
PT [7]: 11.9 s
Plat [7]: 119.4 x10_4/uL
RBC [7]: 667 x10_4/ul
Ret [7]: 5.8%
WBC [7]: 116.6 x10_2/uL
APTT [8]: 26 s
Bas [8]: 0.4%
Eos [8]: 1%
Fbg [8]: 211.6 mg/dL
Hb [8]: 14 g/dL
Ht [8]: 40.2%
Lym [8]: 76.4%
MCH [8]: 19.8 pg
MCHC [8]: 34.8%
MCV [8]: 57.1 fL
Mono [8]: 3.4%
Neu [8]: 18.4%
PT [8]: 12.8 s
Plat [8]: 110.7 x10_4/uL
RBC [8]: 705.6 x10_4/ul
Ret [8]: 2.9%
WBC [8]: 115.7 x10_2/uL
KIDNEY_L [6]: 1.1 g
KIDNEY_R [6]: 1.1 g
KIDNEY_TOTAL [6]: 2.2 g
KIDNEY_L [7]: 1.2 g
KIDNEY_R [7]: 1.3 g
KIDNEY_TOTAL [7]: 2.5 g
KIDNEY_L [8]: 1.6 g
KIDNEY_R [8]: 1.7 g
KIDNEY_TOTAL [8]: 3.3 g
LIVER [6]: 12.4 g
LIVER [7]: 16.5 g
LIVER [8]: 21.9 g
A/G [6]: 1.9
ALP [6]: 692.8 IU/L
ALT [6]: 52 IU/L
AST [6]: 81.4 IU/L
BUN [6]: 14.6 mg/dL
CRE [6]: 0.5 mg/dL
Ca [6]: 9.1 mg/dL
Cl [6]: 103.6 meq/L
DBIL [6]: 0.1 mg/dL
GLC [6]: 141 mg/dL
IP [6]: 7 mg/dL
K [6]: 4.6 meq/L
LDH [6]: 214.2 IU/L
Na [6]: 142.4 meq/L
PL [6]: 145 mg/dL
RALB [6]: 3.5 g/dL
TBIL [6]: 0.2 mg/dL
TC [6]: 96.8 mg/dL
TG [6]: 21.4 mg/dL
TP [6]: 5.3 g/dL
gamma-GTP [6]: 2.6 IU/L
A/G [7]: 1.7
ALP [7]: 536.8 IU/L
ALT [7]: 37 IU/L
AST [7]: 60.2 IU/L
BUN [7]: 15.8 mg/dL
CRE [7]: 0.4 mg/dL
Ca [7]: 10.4 mg/dL
Cl [7]: 103 meq/L
DBIL [7]: 0.074 mg/dL
GLC [7]: 183 mg/dL
IP [7]: 7.8 mg/dL
K [7]: 4 meq/L
LDH [7]: 151.8 IU/L
Na [7]: 142.8 meq/L
PL [7]: 136.4 mg/dL
RALB [7]: 3.8 g/dL
TBIL [7]: 0.1 mg/dL
TC [7]: 82 mg/dL
TG [7]: 20.4 mg/dL
TP [7]: 6.1 g/dL
gamma-GTP [7]: 1.2 IU/L
A/G [8]: 1.8
ALP [8]: 601.2 IU/L
ALT [8]: 50 IU/L
AST [8]: 65.4 IU/L
BUN [8]: 14.8 mg/dL
CRE [8]: 0.5 mg/dL
Ca [8]: 10.2 mg/dL
Cl [8]: 103.2 meq/L
DBIL [8]: 0.08 mg/dL
GLC [8]: 197.2 mg/dL
IP [8]: 8 mg/dL
K [8]: 3.8 meq/L
LDH [8]: 178.8 IU/L
Na [8]: 142.4 meq/L
PL [8]: 146.4 mg/dL
RALB [8]: 3.9 g/dL
TBIL [8]: 0.2 mg/dL
TC [8]: 88.4 mg/dL
TG [8]: 18.2 mg/dL
TP [8]: 6.1 g/dL
gamma-GTP [8]: 1.6 IU/L
